From publication PMC7217483, “Early correction of synaptic long-term depression improves abnormal anxiety-like behavior in adult GluN2B-C456Y-mutant mice” (PLoS Biology, 2020)

Key:
GluN2B [1] = target: T1, GluN2B (Mus musculus, UniProt P35439+Q01097); assay: potentiation of recombinant NMDAR currents in Xenopus oocytes; format: cell-based
T1 construct: gene Grin2b; recombinant diheteromeric GluN1/GluN2B receptor; with GluN1

GluN2B [2] = target: T2, GluN2B (Mus musculus, UniProt P35439+Q01097, Q01097:C456Y, species not given); assay: as above; format: cell-based
T2 construct: gene Grin2b; recombinant diheteromeric GluN1/GluN2B-C456Y receptor; with GluN1
T2 sequence (Q01097 27-1482 C456Y, other chains not shown): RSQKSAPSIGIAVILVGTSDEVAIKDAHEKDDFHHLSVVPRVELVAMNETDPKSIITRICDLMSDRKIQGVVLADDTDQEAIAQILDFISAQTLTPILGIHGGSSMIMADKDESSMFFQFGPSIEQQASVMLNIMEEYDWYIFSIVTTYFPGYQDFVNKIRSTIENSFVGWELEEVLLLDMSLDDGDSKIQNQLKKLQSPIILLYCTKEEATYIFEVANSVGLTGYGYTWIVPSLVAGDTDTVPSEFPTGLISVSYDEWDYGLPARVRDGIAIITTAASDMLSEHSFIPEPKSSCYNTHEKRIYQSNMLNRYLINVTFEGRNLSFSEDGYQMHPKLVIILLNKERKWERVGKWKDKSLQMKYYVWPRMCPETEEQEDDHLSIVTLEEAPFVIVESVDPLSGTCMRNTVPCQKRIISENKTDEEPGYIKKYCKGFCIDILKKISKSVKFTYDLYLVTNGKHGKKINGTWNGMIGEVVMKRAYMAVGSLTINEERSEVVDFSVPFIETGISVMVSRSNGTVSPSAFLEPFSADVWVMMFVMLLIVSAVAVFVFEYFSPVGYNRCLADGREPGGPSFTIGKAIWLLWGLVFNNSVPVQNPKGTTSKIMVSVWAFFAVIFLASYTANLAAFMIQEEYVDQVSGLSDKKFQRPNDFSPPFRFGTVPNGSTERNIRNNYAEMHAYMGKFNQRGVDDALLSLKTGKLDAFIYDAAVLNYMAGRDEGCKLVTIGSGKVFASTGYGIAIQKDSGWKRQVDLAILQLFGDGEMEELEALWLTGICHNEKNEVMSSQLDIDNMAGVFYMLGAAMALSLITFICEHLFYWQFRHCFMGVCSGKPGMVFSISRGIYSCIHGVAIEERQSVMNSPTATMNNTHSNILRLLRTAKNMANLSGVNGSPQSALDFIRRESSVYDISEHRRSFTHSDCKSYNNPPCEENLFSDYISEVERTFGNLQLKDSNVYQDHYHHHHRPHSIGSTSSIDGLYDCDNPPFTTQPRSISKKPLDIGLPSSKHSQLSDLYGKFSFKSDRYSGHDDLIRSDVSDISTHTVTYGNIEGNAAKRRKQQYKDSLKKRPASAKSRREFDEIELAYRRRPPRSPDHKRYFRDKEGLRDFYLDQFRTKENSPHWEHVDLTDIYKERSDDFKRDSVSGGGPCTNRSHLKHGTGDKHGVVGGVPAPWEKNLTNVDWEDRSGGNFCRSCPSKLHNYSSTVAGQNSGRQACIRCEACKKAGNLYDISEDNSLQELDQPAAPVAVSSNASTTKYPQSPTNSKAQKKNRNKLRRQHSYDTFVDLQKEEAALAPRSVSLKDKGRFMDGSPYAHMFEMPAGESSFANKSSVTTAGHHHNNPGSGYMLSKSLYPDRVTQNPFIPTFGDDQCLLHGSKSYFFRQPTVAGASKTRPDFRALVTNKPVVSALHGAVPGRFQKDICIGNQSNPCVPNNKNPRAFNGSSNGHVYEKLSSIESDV

T1 sequence (Q01097 27-1482, other chains not shown): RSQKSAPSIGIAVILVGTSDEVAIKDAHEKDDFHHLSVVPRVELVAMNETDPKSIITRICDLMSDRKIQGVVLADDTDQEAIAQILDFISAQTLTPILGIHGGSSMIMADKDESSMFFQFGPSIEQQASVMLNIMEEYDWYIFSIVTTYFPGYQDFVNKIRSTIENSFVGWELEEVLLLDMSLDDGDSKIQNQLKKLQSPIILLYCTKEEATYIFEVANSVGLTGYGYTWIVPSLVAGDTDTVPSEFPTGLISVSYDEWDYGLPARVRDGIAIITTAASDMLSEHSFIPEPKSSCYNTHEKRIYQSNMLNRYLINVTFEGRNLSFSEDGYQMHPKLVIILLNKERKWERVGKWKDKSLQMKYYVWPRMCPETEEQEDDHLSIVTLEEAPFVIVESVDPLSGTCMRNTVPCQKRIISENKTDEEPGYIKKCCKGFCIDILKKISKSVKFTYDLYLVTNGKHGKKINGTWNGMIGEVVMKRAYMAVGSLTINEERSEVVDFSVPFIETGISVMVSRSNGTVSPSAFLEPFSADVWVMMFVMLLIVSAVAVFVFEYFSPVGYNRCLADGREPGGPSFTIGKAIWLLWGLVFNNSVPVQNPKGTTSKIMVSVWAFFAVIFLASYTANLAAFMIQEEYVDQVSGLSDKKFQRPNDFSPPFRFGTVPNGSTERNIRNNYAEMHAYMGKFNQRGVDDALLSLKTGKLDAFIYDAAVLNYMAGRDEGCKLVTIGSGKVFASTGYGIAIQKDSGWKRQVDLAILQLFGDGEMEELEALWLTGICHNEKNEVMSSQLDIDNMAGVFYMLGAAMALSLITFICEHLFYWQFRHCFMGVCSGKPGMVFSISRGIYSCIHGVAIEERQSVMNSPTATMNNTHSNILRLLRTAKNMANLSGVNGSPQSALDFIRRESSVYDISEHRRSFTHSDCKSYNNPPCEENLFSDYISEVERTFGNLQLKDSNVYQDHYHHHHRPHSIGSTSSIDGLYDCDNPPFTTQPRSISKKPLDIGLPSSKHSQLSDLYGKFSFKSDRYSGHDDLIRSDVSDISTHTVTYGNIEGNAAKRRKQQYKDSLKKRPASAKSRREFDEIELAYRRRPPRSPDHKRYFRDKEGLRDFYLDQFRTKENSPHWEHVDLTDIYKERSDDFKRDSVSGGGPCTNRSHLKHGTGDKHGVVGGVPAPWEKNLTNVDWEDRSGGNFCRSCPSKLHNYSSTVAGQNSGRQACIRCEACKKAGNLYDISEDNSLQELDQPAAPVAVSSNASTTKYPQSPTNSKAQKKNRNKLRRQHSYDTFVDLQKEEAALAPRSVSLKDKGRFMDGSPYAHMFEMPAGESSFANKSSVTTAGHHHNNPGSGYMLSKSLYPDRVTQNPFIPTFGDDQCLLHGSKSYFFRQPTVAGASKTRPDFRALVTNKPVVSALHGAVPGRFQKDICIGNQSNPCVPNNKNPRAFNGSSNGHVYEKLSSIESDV

With `NCCCNCCCCNCCCN` [spermine] the “potentiation of recombinant NMDAR currents in Xenopus oocytes” value (GluN2B [1]) was 9.45 spermine potentiation and the “potentiation of recombinant NMDAR currents in Xenopus oocytes” value (GluN2B [2]) was 2.83 spermine potentiation.
